The values that follow come from article PMC8825254, “Rational design of Striga hermonthica-specific seed germination inhibitors” (Plant Physiology, 2021).

Like-named read-outs stand apart in the source and are kept apart here.

Series [1] addresses T1, ShHTL7 (Striga hermonthica, UniProt A0A0M3PNA2).
T1 sequence (A0A0M3PNA2 1-271): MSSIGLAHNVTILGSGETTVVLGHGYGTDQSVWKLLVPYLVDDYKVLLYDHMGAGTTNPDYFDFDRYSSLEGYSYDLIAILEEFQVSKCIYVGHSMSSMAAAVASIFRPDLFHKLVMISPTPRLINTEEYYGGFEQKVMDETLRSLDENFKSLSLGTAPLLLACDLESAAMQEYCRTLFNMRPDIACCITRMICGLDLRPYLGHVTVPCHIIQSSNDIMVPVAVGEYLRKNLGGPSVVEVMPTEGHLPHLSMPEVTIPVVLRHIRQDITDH
Description: YLG hydrolysis competition assay with ShHTL7. The format is biochemical. The method, then:
About 0.33 µM of ShHTL7 protein was used to conduct in vitro hydrolysis of YLG (1 µM) as a substrate in a total volume of 100 µL of phosphate-buffered saline (1× PBS) containing 0.1% DMSO in 96-well black plate (Greiner Kremsmünster, Austria; [Tsuchiya et al., 2015]). The hydrolysis of YLG over time and changes in the fluorescence intensity was measured by SpectraMax i3 (Molecular Devices, San Jose, CA, USA) using an excitation wavelength of 480 nm and detection wavelength of 520 nm and recorded at 10 min intervals for 2 h. YLG in 1× PBS without protein was used as a control. […] Measurement of the fluorescence was conducted in SpectraMax i3 (Molecular Devices) using the above-mentioned method. The relative fluorescence unit was calculated by subtracting the auto-fluorescence of YLG in the buffer from the fluorescence values of YLG in the presence of a protein. The inhibitory curve and IC50 were determined using https://www.aatbio.com/tools/ic50-calculator website.

Another series deals with T2, OsD14 (Oryza sativa subsp. japonica, UniProt Q10QA5).
T2 construct: made in house; host or cells: Escherichia coli BL21 (DE3)
T2 sequence (Q10QA5 1-318): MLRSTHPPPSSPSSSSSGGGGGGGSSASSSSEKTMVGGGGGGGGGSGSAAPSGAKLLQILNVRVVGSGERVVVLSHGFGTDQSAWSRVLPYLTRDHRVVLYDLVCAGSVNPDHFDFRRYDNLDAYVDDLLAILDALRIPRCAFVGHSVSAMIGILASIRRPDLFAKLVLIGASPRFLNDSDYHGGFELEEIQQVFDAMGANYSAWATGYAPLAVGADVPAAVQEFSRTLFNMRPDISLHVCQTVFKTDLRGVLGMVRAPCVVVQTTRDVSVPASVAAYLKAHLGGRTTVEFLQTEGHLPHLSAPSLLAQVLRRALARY
In words: YLG hydrolysis competition assay with OsD14. In kind it is biochemical, rice (Oryza sativa).

The target in series [2] is T1, ShHTL7. In words: DSF thermal stability of ShHTL7. As to conditions: for Effect on SYPRO orange fluorescence peak of ShHTL7: 0 to 100 µM, result in words. The format is binding. The method, then:
About 10 µM of ShHTL7 purified protein was incubated with various concentrations of KK023-N1, Triton X-100, or KK094 (ranging from 0 to 100 µM) for 30 min. Then SYPRO Orange (reporter dye) was added to 1× final concentration. The reactions were carried out in 25 µL 1× PBs buffer. The assay was performed on CFX96 Real-Time System (BIO-RAD, Hercules, CA, USA) thermal cycler on 96-well quantitative polymerase chain reaction (qPCR) white plate, and the plate was sealed with adhesive qPCR plate seal to prevent samples evaporation ([Bai et al., 2019]). First, samples were heated to 25°C for 1 min followed by linear increase in the temperature ramp from 25°C to 99°C at a rate of 0.5°C/15 s. The change in the protein folding was monitored by the changes in the fluorescence of the reporter dye, and the data were analyzed by the machine software that plots the inflection point of fluorescence against temperature. Data were exported into Excel, and replicates were averaged to generate the graph.

Another series addresses ShHTL5 (Striga hermonthica, UniProt A0A0M5I297). Description: YLG hydrolysis competition assay with ShHTL5. In kind it is biochemical. As to conditions: result in words.
Another series deals with Striga hermonthica seeds. Description: Striga seed germination bioassay (seeds from Sudan). In kind it is in vivo. Particulars: for Reduction in Striga seed germination compared to the GR24 treatment: 20-40 µM inhibitor. The method, then:
Striga seeds were surface sterilized by 20% Sodium hypochlorite (NaClO) for 10 min followed by successive 6 times washing with sterilized MilliQ water. Seeds were kept to dry under the laminar flow cabinet, and ∼50–100 sterilized Striga seeds were spread uniformly on a glass fiber filter paper disc (9 mm). For preconditioning, around 12 discs were put in a petri plate on a filter paper moistened with 3 mL sterilized MilliQ water. Plates were then sealed with parafilm and kept in an incubator for 10 d at 30°C (in dark). After preconditioning, plates were removed from the incubator and dried, and discs were pre-treated with different concentrations (0, 5, 10, 20, 40, 80, 160, 320, and 640 μM) of KK023-N1, KK023-N2, Triton X-100, or KK094 for 24 h. Next day, a combination of the inhibitors (same concentrations) along with GR24 (0.5 nM or 1 nM) was applied, and discs were incubated at 30°C for 24 h. For inhibitory effect of KK023-N1 and -N2 on Striga seeds obtained from Kenya, seeds were treated with (0, 3, 6, 12, 25, 50,100, 200, 400, and 800 μM). After image scanning, germinated and nongerminated seeds were counted and germination rate (%) was calculated by using SeedQuant software ([Braguy et al., 2021)].

For series [3], the system named is Rice seeds (cv Nipponbare). In words: Rice germination and seedling growth in response to inhibitors. In kind it is in vivo, rice (Oryza sativa). As to conditions: result in words. On the procedure:
Rice seeds (cv Nipponbare) were surface sterilized in 2.5% NaClO and 0.05% of Tween-20 for 10 min, and rinsed 6 times with sterilized MilliQ water. Seeds were imbibed in sterilized water at 30°C for 24 h in the dark. Next day, ∼3 mL of each inhibitor at different concentrations (3, 6, 12, 25, 50, and 100 μM) was added along with 0.5 Murashige and Skoog (MS) medium into 24-well plate, and one imbibed rice seed was placed in each well. The experiment was performed in six replications (one plant/well, n = 6) for each concentration. Nontreated rice seeds in 0.5-MS solution were included as a control. Seeds were allowed to germinate at 30°C in the dark for 48 h for monitoring seeds germination, and seeds were moved to a growth chamber with white fluorescent light (130–180 μM m^−2 s^−1) and12 h:12 h (Light/Dark (L/D)) period at 28°C. After 1 week, length of rice seedlings was measured and recorded, and pictures of seedlings were taken.

Series [4] has as its system Rice WT (cv Nipponbare) seedlings. In words: Rice micro tillering assay, WT, hydroponics. The format is in vivo, rice (Oryza sativa). As to conditions: 10, 50 and 100 µM, 2 weeks, result in words. The method, then:
(§1) Rice seeds of WT (cv Nipponbare) or SL-deficient mutant (d17), were surface sterilized with 2.5% NaClO and 0.05% of Tween-20 for 10 min, and rinsed 6 times with sterilized MilliQ water. About 30 seeds were placed on sterilized Magenta GA-7 plant culture box containing 0.5% MS medium with 0.4% agar and incubated at 30°C in dark. After 2 d, boxes were moved to a growth chamber and allowed to grow for another 5 d under fluorescent white light (130–180 μM m^−2 s^−1). Equally grown seedlings were transplanted in 50-mL black tubes filled with Hoagland nutrient solution (1 seedling/tube). Seedlings were treated with 10, 50, and 100 µM of each compound (KK023-N1, Triton X-100, and KK094). The compounds were applied twice a week for 2 weeks to test their effects on the growth of WT plants. SL-deficient seedlings (d17) were treated as WT but with the addition of 1 µM GR24. Number of tillers per plant, plant height, and dry biomass were measured at final harvest.

A further series deals with Rice d17 seedlings. Description: Rice micro tillering assay, SL-deficient mutant d17 with GR24. In kind it is in vivo, rice (Oryza sativa). As to conditions: compound with 1.0 µM GR24; result in words. On the procedure:
as §1

The target of series [5] is T1, ShHTL7. Also noted: method as in Holbrook-Smith et al., 2016; Yoneyama, 2016. Particulars: previously reported, ref Holbrook-Smith et al., 2016, Yoneyama, read-out: IC50, competitive inhibition of ShHTL7-mediated YLG hydrolysis; cited from earlier work.
The subject of the next series is Striga hermonthica. Description: Striga emergence study in infested rice pots under greenhouse conditions. As to conditions: for Change in Striga emergence compared to mock: Figure 10B; for Rice plant height, change: Striga-infested pots, Figure 10C. In kind it is in vivo, Striga hermonthica on rice cv IAC165. The method, then:
Approximately 6,000 Striga seeds (20 mg) were weighed, mixed with sand/soil mixture (1:2 ratio), and put into a 3-L perforated plastic pot containing 0.5-L clean sand/soil mixture in the bottom. The pots were kept under greenhouse-controlled conditions at 30°C and kept moist with water for Striga preconditioning for 10 d. Formulated KK023-N1 and Triton X-100 were applied (at 100 mL per pot) at 10 and 100 µM concentration. Then three rice seedlings (cv IAC165, 10 d old) were planted in each pot after 24 h of inhibitor application. All the treatments were applied continuously twice per week for 4 weeks. Water with same amount of solvent (Cyclohexanone+Atlas-G) was used as a control. Pots were irrigated with 200 mL of Hoagland’s nutrient solution with low phosphate (4 µM) when needed. The rice plants were allowed to grow under greenhouse conditions for 10 weeks and the emerged Striga plants were counted from each pot. The height of rice plants was also measured to see impact of Striga infestation on host growth.

Where [6] appears, read: 0.33 µM ShHTL7, 1 µM YLG, read-out: IC50, inhibition of ShHTL7-mediated YLG hydrolysis.

Chain of ShHTL5 (A0A0M5I297 entry or part of it): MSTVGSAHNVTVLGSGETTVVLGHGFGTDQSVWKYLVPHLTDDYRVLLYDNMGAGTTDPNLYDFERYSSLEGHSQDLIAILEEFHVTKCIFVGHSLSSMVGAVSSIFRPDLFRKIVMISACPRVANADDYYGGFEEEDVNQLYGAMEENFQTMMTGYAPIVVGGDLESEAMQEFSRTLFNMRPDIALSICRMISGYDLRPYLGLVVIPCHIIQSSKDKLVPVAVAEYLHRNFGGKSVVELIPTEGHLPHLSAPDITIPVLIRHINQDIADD

In general, IC50 refers to the midpoint of a concentration-inhibition curve. For the compound `CC1=C[C@H](O/C=C2/C(=O)O[C@@H]3c4ccccc4C[C@H]23)OC1=O` [GR24], the IC50 at ShHTL7 [1] (setting [6]) worked out at 0.27 µM; at OsD14 (0.33 µM OsD14, 1 µM YLG, read-out: IC50, inhibition of OsD14-mediated YLG hydrolysis) it was 2.59 µM. On ShHTL7 [2], the “Decrease of ShHTL7 melting temperature” value came out at 7 °C. Moreover, the “Melting temperature of ShHTL7” value on ShHTL7 [2] (high concentrations of compound, 50°C without) is 43 °C.
For `COc1ccc(CCCc2cccc3c2CCN3C(=O)n2nccn2)cc1` [KK023-N2], the IC50 on ShHTL7 [1] was 2.15 µM. Also, the IC50 at OsD14 (Figure 3D-F, mean ± SD, n = 3, no unit printed with values (x-axis µM), read-out: IC50, OsD14-mediated YLG hydrolysis (Figure 3)) is > 50 µM. In addition, the “Effect on YLG hydrolysis by ShHTL5” value at ShHTL5 is “did not influence the YLG hydrolysis”. Further, the “Reduction in Striga seed germination compared to the GR24 treatment” value in the series on Striga hermonthica seeds (GR24 0.5 or 1.0 nM) is listed as “around 42%”. Further, the “Effect on rice seedling plant height” value in series [3] (all treatments (3-100 µM), 1 week) was “no effect on plant height was observed”. For the same compound, in series [3] (up to 100 µM), the “Effect on rice seed germination” value is on record as “did not detect any effect on seed germination” and the “Phenotype of treated rice seedlings versus control” value is on record as “did not show any significant phenotypic difference”.
For orientation: inhibition means the percentage by which the read-out fell short of the control. On to `O=C(N1CCc2ccccc21)n1ccnn1` [KK094], for which the IC50 at ShHTL7 [1] was > 25 µM. Further, the “Effect on SYPRO orange fluorescence peak of ShHTL7” value on ShHTL7 [2] was “did not change the fluorescence peak”. Besides, in the series with Striga hermonthica seeds (20 µM inhibitor, GR24 0.5 or 1.0 nM), the “Reduction in Striga seed germination” value is 50%. In the series on Striga hermonthica seeds (80 µM, result in words), the “Inhibition of Striga seed germination” value is reported as “complete inhibition”. For the same compound, the inhibition at 100 µM in the series on Striga hermonthica seeds (Striga hermonthica, 100 µM) is 100%. For the same compound, in [4], the “Effect on dry biomass of WT rice” value is “reduction in plant height and dry biomass”; the “Effect on plant height of WT rice” value is listed as “reduction in plant height”; the “Effect on tillering of WT rice” value is “significant increase in rice tillering”. In addition, the “Effect on GR24 action on tillering of d17 rice” value in the series with Rice d17 seedlings was “blocked D14, resulting in increased tillering phenotype”.
As for `CCOC(=O)C1(Cc2cccc(C(F)(F)F)c2)CCN(Cc2ccc(C#CCCO)cc2)CC1` [Soporidine], the IC50 at ShHTL7 [5] was 12.5 µM.
Triton X-100 [reference compound]: at ShHTL7 [1] (setting [6]), the IC50 turned out to be 0.47 µM. Besides, on ShHTL7 [2], the “Effect on SYPRO orange fluorescence peak of ShHTL7” value is given as “reduction in the peak fluorescence”. In addition, in the series with Striga hermonthica seeds (GR24 0.5 or 1.0 nM), the “Reduction in Striga seed germination compared to the GR24 treatment” value is 31%. For the same compound, in the series with Rice d17 seedlings, the “Effect on GR24 action on tillering of d17 rice” value was “did not block the GR24 effect on rice tillers”. For the same compound, in the series on Striga hermonthica (10 µM), the “Change in Striga emergence compared to mock” value is listed as -13% and the “Rice plant height, change” value is -23%. In the series on Striga hermonthica (100 µM), the “Change in Striga emergence compared to mock” value is reported as -25% and the “Rice plant height, change” value is -4%.
